According to patent publication US11116722B2, “Antifungal dry powders” (priority 2016, dated 2021):

Tested on: Calu-3 cell line
Experimental: A bio-relevant dissolution testing system was used based on mimicking the air-liquid interface at the respiratory epithelium interface using a cell-based in vitro method. A modified next generation impactor that incorporated cell culture plates onto collection stages (cNGI) was used to uniformly deposit materials onto the cell cultures. Dissolution and permeation of the drug through the epithelial cell monolayer was measured.
Epithelial cell monolayers grown at the air-liquid interface in Snapwell™ (Corning Costar, Mass., USA) permeable insert were integrated into the cNGI. […] The transepithelial electrical resistance (TEER) was measured using an EVOM2 chopstick electrode connected to an EVOM2 Epithelial Voltohmmeter (World Precision Instruments, Hitchin, United Kingdom) and monolayers with a TEER above 450Ω.cm^2 were deemed confluent. […]
Post-dosing of the dose on to the Snapwells from stage 4, the Snapwells were transferred to 6-well plates, which contained 2 mL of PBS pH 7.4+2.0% SDS maintained at 37° C. Basolateral samples were taken at different time points and drug content was measured on an Agilent (Santa Clara, Calif., USA) 1260 Infinity series HPLC. Total dose delivered to the cells was measured from the total amount of drug dissolved over the time-course and from lysing cells post experimentation. […]

CCC(C)n1ncn(-c2ccc(N3CCN(c4ccc(OCC5COC(Cn6cncn6)(c6ccc(Cl)cc6Cl)O5)cc4)CC3)cc2)c1=O (centres unmarked) [Pure ITZ, Itraconazole]
dissolution and permeability kinetics / rate of diffusion (in words): slower dissolution and permeability kinetics than the other formulations
Rate of Diffusion (human, pH 7.4): 1.81 cm/s
